Measurements taken from patent publication US20150299233A1, “COMPOSITIONS AND METHODS COMPRISING RHENIUM FOR THE TREATMENT OF CANCERS” (Massachusetts Institute of Technology, priority 2014, published 2015).
Where two headings read alike, the source gives them in different places.

Legend:
[1] = Stability in whole human blood (octanol extraction, GFAAS); assay type: in vitro ADME; conditions: 500 μM, fresh human blood, 37° C.
Protocol: The stability of biologically active compounds in human blood is vitally important for their potential application in clinical settings. The stability of 1 in whole human blood using a recently developed protocol was investigated. The method exploits the ability of octanol to extract hydrophobic metal complexes such as 1. The rhenium complex 1 (500 μM) was incubated with fresh human blood at 37° C., and aliquots were extracted into octanol at various time points. The amount of 1 in the octanol extracts (corresponding to unreacted 1) was measured by graphite furnace atomic absorption spectroscopy (GFAAS).

PC-3 = assay: Cytotoxicity in the presence of necrostatin-1, PC-3 cells; assay type: cell-based, human; conditions: necrostatin-1 60 μM, t test p<0.05
Protocol: In order to determine the cell-killing mechanism of 1 and 2, cytotoxicity studies in the presence of apoptosis and necrosis inhibitors were conducted. […] The possibility that 1 and 2 induce necroptosis was then investigated. Necroptosis is a well-regulated mode of cell death that is different from unregulated necrosis and apoptosis. Unlike unregulated necrosis, which can be induced by H2O2 or heat, necroptosis generally involved the interaction of protein kinases, RIP1 and RIP3, to initiate cell disintegration. This process can be blocked by necrostatin-1, a potent RIP1 kinase inhibitor. To determine whether 1 and 2 induced necroptosis and/or uncontrolled necrosis, cytotoxicity studies were conducted in the presence of necrostatin-1 (60 μM) and IM-54 (10 μM), an inhibitor of H2O2-induced necrosis. […] Therefore, 1- and 2-induced cell death relies on RIP1-RIP3 complex formation and not on the expression levels of the individual protein kinases. RIP1 can also form a cytosolic complex with Fas-associated death domain (FADD) and caspase 8, known as a ripoptosome, to initiate apoptosis (through caspase 8 cleavage).
Cytotoxicity MTT Assay. […] Cells (2×10^3 cells/well) were seeded in a 96-well plate. […] The absorbance of the solution wells was read at 550 nm. Absorbance values were normalized to DMSO-containing control wells and plotted as the concentration of test compound versus % cell viability. […]

A549 cells = assay: Hoechst 33258/propidium iodide double staining, fluorescence microscopy; assay type: cell-based, human; conditions: for nuclear staining, Hoechst 33258 and PI uptake: 20 μM for 12 h; for PI staining on co-incubation with necrostatin-1: necrostatin-1 60 μM for 12 h
Protocol: Intracellular ROS production and mitochondrial membrane depletion contribute to necroptosis. Cells undergoing necroptosis display necrosis-like morphological features such as loss of cell membrane integrity, increase in organelle and cell volume (oncosis), and intact nuclear membrane. To further test whether 1- and 2-treatment can trigger necroptosis, Hoechst 33258/propidium iodide (PI) double staining was carried out to determine nuclear membrane morphology and integrity. Hoechst 33258 is a DNA minor groove binder that is routinely used to visualize the nucleus without the need for cell permeabilization. When used without cell permeabilization agents, PI stains the nuclei of necrotic cells. Early-stage apoptotic and normal cells maintain cell membrane integrity and thus are not stained by PI. A549 cells were treated with 1 and 2 (20 μM for 12 h), incubated with Hoechst 33258 and PI, and imaged using a fluorescence microscope.
Fluorescence Microscopy. A549 cells (1.5×10^6 cells/well) were incubated with and without 1 and 2 (20 μM) for 12 h. The media were then removed, and the cells were washed with additional media (2 mL×2). After incubation of the cells with more media containing Hoechst 33258 (7.5 μM) and PI (5 μM), the nuclear regions were imaged using a fluorescence microscope. Fluorescence imaging experiments were performed using a Zeiss Axiovert 200M inverted epifluorscence microscope with a Hamamatsu EM-CCD digital camera C9100 and a MS200 XY Piezo Z stage (Applied Scientific Instruments, Inc.). An X-Cite 120 metal halide lamp (EXFO) was used as the light source. Zeiss standard filter set 49 was employed for imaging the nuclear region. The microscope was operated with Volocity software (version 6.01, Improvision). The exposure time for acquisition of fluorescence images was kept constant for each series of images at each channel.

[2] = tested on: cisplatin-resistant ovarian carcinoma cells (A2780CP70); assay: MTT cytotoxicity assay, A2780CP70 cells; assay type: cell-based, human
[3] = Table 1, 72 h exposure, ± standard deviation, read-out: IC50 A2780CP70 ovarian carcinoma
[4] = Table A, average of three independent determinations, read-out: IC50 A280CP70 (ovarian)

| SMILES | half-life in human blood [1] [min] | effect of co-incubation with necrostatin-1 on toxicity, PC-3 (PC-3) | nuclear staining, Hoechst 33258 and PI uptake (A549 cells) | PI staining on co-incubation with necrostatin-1 (A549 cells) | IC50 [2, 3] [nM] | IC50 [2, 4] [nM] |
| --- | --- | --- | --- | --- | --- | --- |
| C[O][Re](=[O])([Cl])[Cl].c1ccc(-c2ccnc3c2ccc2c(-c4ccccc4)ccnc23)cc1 [Compound 1, [ReO(OMe)(4,7-diphenyl-1,10-phenanthroline)-Cl2]] | 29.1 | markedly decreased the toxicity | pink nuclei | unstained by PI | 42 ± 15 | 42 ± 15 |
| C[O][Re-2]1(=[O])([Cl])([Cl])[n+]2cc(C)c(C)c3ccc4c(C)c(C)c[n+]1c4c32 [Compound 2, [ReO(OMe)(3,4,7,8-tetramethyl-1,10-phenanthroline)Cl2]] | – | markedly decreased the toxicity | pink nuclei | unstained by PI | 56 ± 2 | 56 ± 2 |
